# Legend:
# [1] = Critical micellar concentration; assay type: physicochemical
# Description: “Self-assembly” of amphiphilic molecules is understood to be the spontaneous organisation, into spherical micelles, of amphiphilic molecules in aqueous media at a concentration greater than the critical micellar concentration or CMC.
# The critical micellar concentration of the amphiphilic molecule II-4 as described hereinbefore was determined in experiments to be 0.082 mg/ml.
# physchem = conditions: for Molar level of inclusion: polymerised micelles at 10 mg/ml, 50° C. 12 hours, molar ratio medicament/(medicament + amphiphilic II-4) × 100; for Level of inclusion by weight: polymerised micelles of amphiphilic II-4 at 10 mg/ml, stirring at 50° C. for 12 hours, weight ratio medicament/(medicament + transporter) × 100; for Number of molecules per micelle: polymerised micelles, molar ratio medicament/amphiphilic II-4 × 100 amphiphilics per micelle
# Description: At the end of the inclusion sequence, the solution is filtered in order to remove the excess of non-included active ingredient.
# The level of inclusion of S39625 is determined by the reverse-phase HPLC method. This technique is based on the difference in the interaction of molecules between the mobile phase and the stationary phase. This difference affects the retention times for those molecules. For given HPLC conditions, the same molecule always has the same retention time. The reverse-phase HPLC conditions for determination of the level of inclusion of S39625 are an RP-18^c grafted silica column for the stationary phase and a gradient of water and of acetonitrile from 5% to 100% for the mobile phase. Detection of the S39625 at the column exit is carried out by a UV detector at a wavelength of 385 nm. A standard curve for S39625 in acetonitrile was produced by reverse HPLC.
# [2] = Solubility of the active ingredient molecule in water; assay type: physicochemical; conditions: free molecule, without micelles
Critical micellar concentration [1] [mg/mL],"solubility at 12 h (physchem; 50 °C, aqueous with cosolvent or surfactant or cyclodextrin, thermodynamic from solid) [µg/mL]",Level of inclusion by weight (physchem; listed as paclitaxel) [%],Structure (SMILES),Solubility in water (physchem) [µg/mL],Molar level of inclusion (physchem) [%],Level of inclusion by weight (physchem) [%],Number of molecules per micelle (physchem),Solubility of the molecule in water [2] [µg/mL]
0.082,,,CCCC#CC#CCCC(=O)NCCCCC(C(=O)O)N(CC(=O)O)CC(=O)O (stereo not shown) [II-4],,,,,
,4550,33,"CC(=O)O[C@H]1C(=O)[C@@]2(C)[C@H]([C@H](OC(=O)c3ccccc3)[C@]3(O)C[C@H](OC(=O)[C@H](O)[C@@H](NC(=O)c4ccccc4)c4ccccc4)C(C)=C1C3(C)C)[C@]1(OC(C)=O)CO[C@@H]1C[C@@H]2O [Paclitaxel, paclitaxel, reference compound]",,25,31,33,

# Second part, the molecule before the results:
Structure (SMILES),Critical micellar concentration [1] [mg/mL],"solubility at 12 h (physchem; 50 °C, aqueous with cosolvent or surfactant or cyclodextrin, thermodynamic from solid) [µg/mL]",Level of inclusion by weight (physchem; listed as paclitaxel) [%],Solubility in water (physchem) [µg/mL],Molar level of inclusion (physchem) [%],Level of inclusion by weight (physchem) [%],Number of molecules per micelle (physchem),Solubility of the molecule in water [2] [µg/mL]
CN(C)CC[C@H](CSc1ccccc1)Nc1ccc(S(=O)(=O)NC(=O)c2ccc3c(c2)CC[C@@H]2CN(Cc4ccccc4-c4ccc(Cl)cc4)CCN32)cc1[N+](=O)[O-] [S 44563],,,,8300,36,45,56,2.00
CCC1(O)C(=O)Cc2c1cc1n(c2=O)Cc2c-1nc1cc3c(cc1c2C1CCC1)OCO3 (stereo not shown) [S 39625],,,,9000,56,48,125,0.09
"c1cc2ccc3cccc4ccc(c1)c2c34 [Pyrene, pyrene, reference compound]",,,,,63,34,167,

# Reference: patent US8663660B2, “Polymerized micelles” (Les Laboratories Servier, priority 2008, dated 2014)
